In patent US7667052B2 (Eisai R&D Management Co., Ltd., priority 2003, dated 2010):

Experiments:
[1] = tested on: transcription from VEGF promoter; assay: VEGF transcription-suppressing activity, VEGF-PLAP reporter in U251/1-8 cell; assay type: cell-based; settings: Homo sapiens, U-251; U251/1-8 cell, PLAP activity, low oxygen 18 hours; read-out: IC50 values of VEGF transcription-suppressing activity (range given)
Method in brief: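 U251 glioma clone stably carrying a ~2.3 kb human VEGF promoter–secreted PLAP reporter, 4×10^4 cells/well, exposed to 3-fold dilutions of compound for 18 h under low oxygen. Supernatant PLAP read by chemiluminescence at pH 10.0; IC50 = 50% suppression, normoxia 0%, hypoxia 100%.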

[2] = Solubility (physico-chemical properties of the 11107 analogues); settings: in dimethylsulfoxide, pyridine, methanol, acetone and water

Row | SMILES | IC50 [1] | Solubility [2]
1 | CCC(O)C(C)C1OC1CC(C)/C=C/C=C(\C)C1OC(=O)CC(O)CCC(O)(COC(C)=O)C(O)/C=C/C1C (centres unmarked) [11107AB] | 1 to 100 nM | soluble in dimethylsulfoxide, pyridine, methanol and acetone, and slightly soluble in water
2 | CCC(O)C(C)C1OC1CC(C)/C=C/C=C(\C)C1OC(=O)CC(O)CCCC(O)/C=C/C1C (centres unmarked) [11107AK] |  | soluble in dimethylsulfoxide, pyridine, methanol and acetone, and slightly soluble in water
3 | CCC(O)C(C)C1OC1CC(C)/C=C/C=C(\C)C1OC(=O)CC(O)/C=C/C2(CO2)C(OC(C)=O)/C=C/C1C (centres unmarked) [11107AN] | 1 to 100 nM | soluble in dimethylsulfoxide, pyridine, methanol and acetone, and slightly soluble in water
4 | CCC(O)C(C)C1OC1CC(C)/C=C/C=C(\C)C1OC(=O)CC(O)CCC(C)(O)CCC(=O)C1C (centres unmarked) [11107V] |  | soluble in dimethylsulfoxide, pyridine, methanol and acetone, and slightly soluble in water
5 | CCC1OC1C(O)C(C)/C=C/C=C(\C)C1OC(=O)CC(O)CCC(C)(O)C(OC(C)=O)/C=C/C1C (centres unmarked) [11107AY] | 1 to 100 nM | soluble in dimethylsulfoxide, pyridine, methanol and acetone, and slightly soluble in water
6 | CCC(O)C(C)C1OC1CC(C)/C=C/C=C(\C)C1OC(=O)CC(O)CCC(C)(OC(C)=O)C(OC(C)=O)/C=C/C1C (centres unmarked) [11107AQ] | 1 to 100 nM | soluble in dimethylsulfoxide, pyridine, methanol and acetone, and slightly soluble in water
7 | CCC(O)C(C)C1OC1C(O)C(C)/C=C/C=C(\C)C1OC(=O)CC(O)CCC(C)(O)C(OC(C)=O)/C=C/C1C (centres unmarked) [11107BF] |  | soluble in dimethylsulfoxide, pyridine, methanol and acetone, and slightly soluble in water
8 | CCC(O)C(C)/C=C/C=C(\C)C1OC(=O)CC(O)CCC(C)C(OC(C)=O)/C=C/C1C (centres unmarked) [11107BJ] |  | soluble in dimethylsulfoxide, pyridine, methanol and acetone, and slightly soluble in water
9 | CCC(O)C(C)C1OC1CC(C)/C=C/C=C(\C)C1OC(=O)CC(O)CCC2(CO2)C(O)/C=C/C1C (centres unmarked) [11107AO] |  | soluble in dimethylsulfoxide, pyridine, methanol and acetone, and slightly soluble in water
10 | CCC(O)C(C)C(O)C(O)CC(C)/C=C/C=C(\C)C1OC(=O)CC(O)CCC(C)(O)C(OC(C)=O)/C=C/C1C (centres unmarked) [11107O] |  | soluble in dimethylsulfoxide, pyridine, methanol and acetone, and slightly soluble in water
11 | CCC(=O)C(C)C1OC1CC(C)(O)/C=C/C=C(\C)C1OC(=O)CC(O)CCC(C)(O)C(OC(C)=O)/C=C/C1C (centres unmarked) [11107AV] |  | soluble in dimethylsulfoxide, pyridine, methanol and acetone, and slightly soluble in water
12 | CCC(O)C(C)C1OC1CC(C)/C=C/C=C(\C)C1OC(=O)CC(O)CCC(C)(O)C(OC(C)=O)/C=C/C1C (centres unmarked) [11107AD] |  | soluble in dimethylsulfoxide, pyridine, methanol and acetone, and slightly soluble in water
13 | CCC(=O)C(C)C1OC1CC(C)/C=C/C=C(\C)C1OC(=O)CC(O)CCC(C)(O)C(O)/C=C/C1C (centres unmarked) [11107AC] |  | soluble in dimethylsulfoxide, pyridine, methanol and acetone, and slightly soluble in water
14 | CCC(=O)/C(C)=C/C(O)CC(C)/C=C/C=C(\C)C1OC(=O)CC(O)CCC(C)(O)C(OC(C)=O)/C=C/C1C (centres unmarked) [11107AA] |  | soluble in dimethylsulfoxide, pyridine, methanol and acetone, and slightly soluble in water
15 | CCC(O)C(C)C1OC1CC(C)/C=C/C=C(\C)C1OC(=O)CC(O)/C=C/C(C)(O)C(O)/C=C/C1C (centres unmarked) [11107S] |  | soluble in dimethylsulfoxide, pyridine, methanol and acetone, and slightly soluble in water
16 | CC(=O)OC1/C=C/C(C)C(/C(C)=C/C=C/C(C)CC(O)C2OC(C)C(O)C2C)OC(=O)CC(O)CCC1(C)O (centres unmarked) [11107AS] |  | soluble in dimethylsulfoxide, pyridine, methanol and acetone, and slightly soluble in water

Row | SMILES | IC50 [1] | Solubility [2]
17 | CCC1OC1CC(C)(O)/C=C/C=C(\C)C1OC(=O)CC(O)CCC(C)(O)C(OC(C)=O)/C=C/C1C (centres unmarked) [11107BB] |  | soluble in dimethylsulfoxide, pyridine, methanol and acetone, and slightly soluble in water
18 | CC(=O)OC1/C=C/C(C)C(/C=C/C(C)C/C=C/C(C)O)OC(=O)CC(O)CCC1(C)O (centres unmarked) [11107BE] |  | soluble in dimethylsulfoxide, pyridine, methanol and acetone, and slightly soluble in water
19 | CCC(=O)C(C)(O)/C=C/CC(C)/C=C/C1OC(=O)CC(O)CCC(C)(O)C(OC(C)=O)/C=C/C1C (centres unmarked) [11107AH] |  | soluble in dimethylsulfoxide, pyridine, methanol and acetone, and slightly soluble in water
20 | CC(=O)OC1/C=C/C(C)C(/C(C)=C/C=C/C(C)O)OC(=O)CC(O)CCC1C (centres unmarked) [11107AR] |  | soluble in dimethylsulfoxide, pyridine, methanol and acetone, and slightly soluble in water
21 | CCC(O)C(C)C(O)C(O)CC(C)CC/C=C(\C)C1OC(=O)CC(O)CCC(C)(O)C(OC(C)=O)/C=C/C1C (centres unmarked) [11107AG] |  | soluble in dimethylsulfoxide, pyridine, methanol and acetone, and slightly soluble in water
22 | CCC(O)C(C)C(O)C(O)CC(C)/C=C/C=C(\C)C1OC(=O)CC(O)/C=C/C(C)(O)C(OC(C)=O)/C=C/C1C (centres unmarked) [11107BA] |  | soluble in dimethylsulfoxide, pyridine, methanol and acetone, and slightly soluble in water
23 | CCC(O)C(C)(O)/C=C/CC(C)/C=C/C1OC(=O)CC(O)CCC(C)(O)C(OC(C)=O)/C=C/C1C (centres unmarked) [11107BC] |  | soluble in dimethylsulfoxide, pyridine, methanol and acetone, and slightly soluble in water
24 | CCC(O)C(C)C1OC1CC(C)/C=C/C=C(\C)C1OC(=O)C(C)C(O)CCC(C)(O)C(OC(C)=O)/C=C/C1C (centres unmarked) [11107X] |  | soluble in dimethylsulfoxide, pyridine, methanol and acetone, and slightly soluble in water
25 | CCC(O)C(C)C1OC1CC(C)/C=C/C=C(\C)C1OC(=O)CC(O)CCC(C)(O)C(O)/C=C/C1C (centres unmarked) [11107A] |  | soluble in dimethylsulfoxide, pyridine, methanol and acetone, and slightly soluble in water
26 | CCC1OC(CC(C)/C=C/C=C(\C)C2OC(=O)CC(O)CCC(C)(O)C(OC(C)=O)/C=C/C2C)C(O)C1(C)O (centres unmarked) [11107AU] |  | soluble in dimethylsulfoxide, pyridine, methanol and acetone, and slightly soluble in water
27 | CCC(O)C(C)C1OC1CC(C)/C=C/C=C/C1OC(=O)CC(O)CCC(C)(O)C(O)/C=C/C1C (centres unmarked) [11107BD] |  | soluble in dimethylsulfoxide, pyridine, methanol and acetone, and slightly soluble in water
28 | CCC(O)C(O)CC(C)/C=C/C=C(\C)C1OC(=O)CC(O)CCC(C)(O)C(OC(C)=O)/C=C/C1C (centres unmarked) [11107AF] |  | soluble in dimethylsulfoxide, pyridine, methanol and acetone, and slightly soluble in water
29 | CCC(O)C(C)C1OC1CC(C)/C=C/C=C(\C)C1OC(=O)C(C)C(O)CCC(C)(O)C(O)/C=C/C1C (centres unmarked) [11107AI] |  | soluble in dimethylsulfoxide, pyridine, methanol and acetone, and slightly soluble in water
30 | CCC(O)C(C)C1OC1CC(C)/C=C/C=C(\C)C1OC(=O)CC(OC)CCC(C)(O)C(OC(C)=O)/C=C/C1C (centres unmarked) [B8-4, (8E,12E,14E)-7-acetoxy-6,21-dihydroxy-3-methoxy-6,10,12,16,20-pentamethyl-18,19-epoxytricosa-8,12,14-trien-11-olide] | 0.5 to 100 nM | 
31 | CCC(O)C(C)C1OC1CC(C)/C=C/C=C(\C)C1OC(=O)CC(O)CCC(C)(O)C(OC(=O)N2CCCNCC2)/C=C/C1C (centres unmarked) [B61, (8E,12E,14E)-3,6,21-Trihydroxy-6,10,12,16,20-pentamethyl-7-((homopiperazin-1-yl)carbonyl)oxy-18,19-epoxytricosa-8,12,14-trien-11-olide] | 0.5 to 100 nM | 
